The subject of assay [1] is filaggrin, loricrin, keratin 1 and keratin 14. Put plainly: Biomarkers for epithelial tissue damage in back skin by immunofluorescence in imiquimod-induced psoriasis mice. The class given is in vivo, Balb/c mice. As to conditions: after treatment for a week, versus IMQ group. The source says:
(§1) 6-week-old male Balb/c mice (Kangwon Life Science, Korea) were purchased and acclimated for a week, and psoriasis was induced using 5% imiquimod (Donga ST, Korea). FIG. 1 is a schematic experimental scheme of an animal model. Anti-psoriatic efficacy was investigated using a total of 20 animal models including 5 animals per experimental group.
(§2) In order to determine the effect of the extract of Dianthus superbus L. on psoriasis caused by imiquimod, the experimental animals of Section 2-1 were used. The following four experimental groups were constructed and five animals were randomly assigned to each group:
(§3) The experiment was conducted by inducing psoriasis with IMQ cream and then performing daily application in the amount shown in FIG. 2 to the experimental group and the DEX group. FIG. 3 is an image showing the treatment group for 7 days compared to the psoriasis-induced model as the animal experimental model.
After treatment for a week, back skin tissue was removed from each animal and a paraffin block was then prepared. A paraffin block was cut to 5 μm to prepare a slide sample, and then the change in biomarkers for epithelial tissue damage due to psoriasis was measured through immunofluorescence.

Assay [2] deals with psoriasis caused by imiquimod. Put plainly: Epithelial thickness of back skin by H&E staining in imiquimod-induced psoriasis mice. The class given is in vivo, Balb/c mice. As to conditions: after treatment for a week, skin application, compared to the IMQ group.
From the text: as §1, §2, §3
After treatment for a week, the back skin tissue was removed from each animal, and then a paraffin block was prepared. The paraffin block was cut to 5 μm to prepare a slide sample, and then the change in the thickness of the skin tissue was measured through H&E staining.

Each structure is given as a SMILES string.

With `C[C@@H]1C[C@H]2[C@@H]3CCC4=CC(=O)C=C[C@]4(C)[C@@]3(F)[C@@H](O)C[C@]2(C)[C@@]1(O)C(=O)CO` [DEX, dexamethasone], in assay [1], the “expression level of filaggrin” value is recorded as “increased”, the “expression level of keratin 1” value was “increased”, the “expression level of keratin 14” value is given as “increased” and the “expression level of loricrin” value is “increased”. Besides, in assay [2], the “thickness of the epithelial layer” value is on record as “decreased thickness”.
